Source: the supplement of paper PMC10307832

How the values were obtained:
Assay in all cases: relative viability (nuclei count vs DMSO), 5 days (fraction); higher = more cells survive
[1] = compound: CC1=C(CC(=O)O)c2cc(F)ccc2/C1=C\c1ccc([S+](C)[O-])cc1 [Sulindac] + CS(=O)(=O)N1CCN(Cc2cc3nc(-c4cccc5[nH]ncc45)nc(N4CCOCC4)c3s2)CC1 [Pictilisib] (partner 1 µM)
Method in brief: (§1)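 Each reported value is a median over duplicate plates. It expresses relative viability: treated-well nuclei count divided by vehicle-well nuclei count. Lung cancer cell lines in 1536-well plates were dosed by pin tool a day after seeding, alone with one drug or with a fixed anchor-drug dose plus five library-drug doses (not always all listed) in √10 steps, and nuclei were counted after 5 days.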

[2] = compound: O=c1[nH]cc(F)c(=O)[nH]1 [5-Fluorouracil] + CC1(C)CCC(c2ccc(Cl)cc2)=C(CN2CCN(c3ccc(C(=O)NS(=O)(=O)c4ccc(N[C@H](CCN5CCOCC5)CSc5ccccc5)c(S(=O)(=O)C(F)(F)F)c4)cc3)CC2)C1 [Navitoclax] (partner 0.5 µM)
Method in brief: as §1

[3] = compound: O=c1[nH]cc(F)c(=O)[nH]1 [5-Fluorouracil] + C[C@]1(O)C[C@@H](c2nc(-c3ccc4ccc(-c5ccccc5)nc4c3)c3c(N)nccn32)C1 [Linsitinib] (partner 1 µM)
Method in brief: as §1

[4] = compound: CC1=C(CC(=O)O)c2cc(F)ccc2/C1=C\c1ccc([S+](C)[O-])cc1 [Sulindac] + CC(=O)c1c(C)c2cnc(Nc3ccc(N4CCNCC4)cn3)nc2n(C2CCCC2)c1=O [Palbociclib] (partner 0.5 µM)
Method in brief: as §1

Row | Cell Line | relative viability ([1]; first compound 0.08 µM) | relative viability ([1]; first compound 0.253 µM) | relative viability ([1]; first compound 0.8 µM) | relative viability ([1]; first compound 2.53 µM) | relative viability ([1]; first compound 8 µM) | relative viability ([2]; first compound 0.02 µM) | relative viability ([2]; first compound 0.2 µM) | relative viability ([2]; first compound 0.6325 µM) | relative viability ([2]; first compound 2 µM) | relative viability ([3]; first compound 0.02 µM) | relative viability ([3]; first compound 0.2 µM) | relative viability ([3]; first compound 0.6325 µM) | relative viability ([3]; first compound 2 µM) | relative viability ([4]; first compound 0.08 µM) | relative viability ([4]; first compound 0.253 µM) | relative viability ([4]; first compound 0.8 µM) | relative viability ([4]; first compound 2.53 µM) | relative viability ([4]; first compound 8 µM)
1 | NCI-H1355 | 0.458 | 0.407 | 0.36 | 0.39 | 0.448 | 0.699 | 0.651 | 0.353 | 0.241 | 0.639 | 0.681 | 0.398 | 0.314 | 0.335 | 0.43 | 0.327 | 0.395 | 0.379
2 | EKVX | 0.409 | 0.487 | 0.381 | 0.475 | 0.516 | 0.847 | 0.283 | 0.142 | 0.124 | 0.891 | 0.282 | 0.153 | 0.142 | 0.396 | 0.35 | 0.31 | 0.339 | 0.465
3 | NCI-H520 | 0.336 | 0.3 | 0.235 | 0.251 | 0.366 | 0.81 | 1.19 | 0.873 | 0.406 | 0.892 | 1.07 | 0.751 | 0.356 | 0.231 | 0.239 | 0.221 | 0.244 | 0.278
4 | NCI-H1993 | 0.827 | 0.787 | 0.769 | 0.732 | 0.927 | 0.952 | 0.885 | 0.752 | 0.669 | 0.8 | 0.714 | 0.713 | 0.608 | 0.666 | 0.658 | 0.591 | 0.727 | 0.604
5 | HCC-78 | 0.309 | 0.269 | 0.207 | 0.183 | 0.246 | 0.55 | 0.805 | 0.285 | – | 0.398 | 0.528 | 0.258 | – | 0.481 | 0.48 | 0.501 | 0.444 | 0.442
6 | NCI-H2087 | 0.951 | 0.783 | 0.622 | 0.916 | 0.984 | 0.928 | 0.917 | 0.573 | 0.557 | 0.91 | 0.865 | 0.657 | – | 0.224 | 0.273 | 0.228 | 0.239 | 0.224
7 | H3255 | 0.486 | 0.463 | 0.464 | 0.562 | 0.524 | 0.566 | 0.795 | 0.454 | 0.419 | 0.99 | 1.07 | 0.853 | 0.579 | 0.288 | 0.32 | 0.391 | 0.311 | 0.326
8 | NCI-H2126 | 0.46 | 0.498 | 0.462 | 0.497 | 0.479 | 0.827 | 0.367 | 0.303 | 0.298 | 0.64 | 0.378 | 0.341 | 0.285 | 0.344 | 0.333 | 0.395 | 0.372 | 0.361
9 | LC-2-ad | 0.63 | 0.533 | 0.34 | 0.416 | 0.445 | 0.445 | 0.441 | 0.296 | 0.186 | 0.868 | 0.798 | 0.463 | 0.299 | 0.521 | 0.514 | 0.37 | 0.469 | 0.547
10 | SK-LU-1 | 0.582 | 0.592 | – | 0.49 | 0.703 | 1.1 | 1.2 | 0.796 | 0.753 | 1.23 | 1.08 | 1.13 | 0.941 | 0.387 | 0.417 | 0.464 | 0.369 | 0.408
11 | EBC-1 | 0.382 | 0.422 | 0.343 | 0.342 | 0.49 | 0.342 | 0.405 | 0.44 | 0.339 | 0.859 | 0.928 | 0.814 | 0.605 | – | – | – | – | –
12 | HCC-15 | 0.861 | 0.817 | 0.526 | 0.735 | 0.814 | 0.761 | 0.77 | 0.469 | 0.298 | 0.894 | 0.827 | 0.584 | 0.308 | 0.901 | 0.818 | 0.543 | 0.736 | 0.721
13 | NCI-H1563 | 0.609 | 0.662 | 0.665 | 0.65 | 0.622 | – | – | – | – | 1.08 | 1.25 | 1.12 | 0.994 | – | – | – | – | –
14 | COR-L 105 | 0.392 | 0.36 | 0.36 | 0.338 | 0.489 | 0.707 | 0.685 | 0.694 | 0.582 | 0.976 | 0.862 | 0.937 | 0.575 | 0.387 | 0.402 | 0.365 | 0.412 | 0.395
15 | NCI-H647 | 0.49 | 0.422 | 0.435 | 0.419 | 0.735 | 1.24 | 1.06 | 1.09 | 0.729 | 1.05 | 1.32 | 1.16 | 0.701 | 0.462 | 0.469 | 0.339 | 0.431 | 0.439
16 | LU99A | 0.33 | 0.31 | 0.301 | 0.267 | 0.344 | 0.755 | 0.795 | 0.686 | 0.563 | 0.549 | 0.607 | 0.426 | 0.422 | 0.439 | 0.409 | 0.389 | 0.376 | 0.417
17 | NCI-H1703 | 0.229 | 0.238 | 0.219 | 0.229 | 0.291 | 1.32 | 1.08 | 0.817 | 0.61 | 0.665 | 1.16 | 0.856 | 0.484 | – | – | – | – | –
18 | NCI-H2170 | 0.274 | 0.288 | 0.291 | 0.294 | 0.322 | 0.573 | 0.557 | 0.351 | 0.31 | – | – | – | – | 0.482 | 0.402 | 0.413 | 0.427 | 0.38
19 | NCI-H2342 | – | – | – | – | – | – | – | – | – | – | – | – | – | 0.466 | 0.482 | 0.536 | 0.481 | 0.56
